Assay results published in ChEMBL document CHEMBL5625239, “Synthesis of 1,3,5-triphenyl-1,2,4-triazole derivatives and their neuroprotection by anti-oxidative stress and anti-inflammation and protecting BBB” (Eur J Med Chem, 2023).
Active and inactive are the calls of the source. The rule behind the calls is not given here.

Legend:
Rattus norvegicus [1] = assay: Neuroprotective activity against middle cerebral artery occlusion induced ischemia stroke Sprague-Dawley rat model assessed as reduction in glycocalyx degradation by measuring decrease in serum syndecan-1 level at 20 mg/kg, ip measured after 24 hrs by ELISA; assay type: functional, organism-based
Rattus norvegicus [2] = assay: Neuroprotective activity against middle cerebral artery occlusion induced ischemia stroke Sprague-Dawley rat model assessed as cerebral infarction area at 10 mg/kg, ip measured after 24 hrs by TTC staining based imaging analysis (reference value: 20.08 +/- 5.70); assay type: functional
Rattus norvegicus [3] = assay: Neuroprotective activity against middle cerebral artery occlusion induced ischemia stroke Sprague-Dawley rat model assessed as reduction in glycocalyx degradation by measuring decrease in serum hyaluronic acid level administered intraperitoneally and measured after 24 hrs by ELISA; assay type: functional, organism-based; details: dose 5-20 mg/kg, route ip
Rattus norvegicus [4] = assay: Neuroprotective activity against middle cerebral artery occlusion induced ischemia stroke Sprague-Dawley rat model assessed as cerebral infarction area at 20 mg/kg, ip measured after 24 hrs by TTC staining based imaging analysis (reference value: 20.08 +/- 5.70); assay type: functional
Rattus norvegicus [5] = assay: Neuroprotective activity against middle cerebral artery occlusion induced ischemia stroke Sprague-Dawley rat model assessed as reduction in glycocalyx degradation by measuring decrease in serum heparan sulfate level at 5 to 20 mg/kg, ip measured after 24 hrs by ELISA; assay type: functional, organism-based; details: dose 5-20 mg/kg
Rattus norvegicus [6] = assay: Neuroprotective activity against middle cerebral artery occlusion induced ischemia stroke Sprague-Dawley rat model assessed as cerebral infarction area at 5 mg/kg, ip measured after 24 hrs by TTC staining based imaging analysis (reference value: 20.08 +/- 5.70); assay type: functional
[7] = target: Voltage-gated inwardly rectifying potassium channel KCNH2 (Homo sapiens, UniProt Q12809); assay: Inhibition of hERG in HEK293 cells by whole-cell patch clamp electrophysiological recording; assay type: toxicity, cell-based
[8] = target: T1, Prostaglandin G/H synthase 1 (Ovis aries, UniProt P05979); assay: Inhibition of ovine COX-1 using arachidonic acid as substrate preincubated with compound for 5 mins followed by substrate addition and measured after 2 mins by enzyme immunoassay
T1 sequence (P05979 whole entry): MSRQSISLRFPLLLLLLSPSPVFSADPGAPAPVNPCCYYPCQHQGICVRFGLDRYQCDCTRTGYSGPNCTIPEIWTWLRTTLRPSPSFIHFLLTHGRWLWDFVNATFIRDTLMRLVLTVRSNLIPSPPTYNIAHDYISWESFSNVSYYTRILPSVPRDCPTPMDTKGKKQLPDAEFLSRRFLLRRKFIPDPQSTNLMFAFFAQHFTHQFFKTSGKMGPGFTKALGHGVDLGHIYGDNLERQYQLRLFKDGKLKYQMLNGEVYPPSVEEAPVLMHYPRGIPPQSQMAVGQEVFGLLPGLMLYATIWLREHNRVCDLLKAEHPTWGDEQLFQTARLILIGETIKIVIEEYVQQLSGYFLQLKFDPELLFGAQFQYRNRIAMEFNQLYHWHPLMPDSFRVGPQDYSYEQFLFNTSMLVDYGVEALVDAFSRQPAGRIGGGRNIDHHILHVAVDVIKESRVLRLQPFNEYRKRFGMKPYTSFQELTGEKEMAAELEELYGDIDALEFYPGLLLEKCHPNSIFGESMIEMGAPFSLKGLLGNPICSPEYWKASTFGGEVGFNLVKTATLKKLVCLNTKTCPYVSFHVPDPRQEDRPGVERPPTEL

RAW264.7 [9] = assay: Anti-inflammatory activity in LPS-induced mouse RAW264.7 cells assessed as decrease in iNOS expression preincubated with compound for 1 hrs followed by LPS stimulation and measured after 24 hrs by Western blot analysis; assay type: functional, cell-based; details: dose 1.25-5 µM, time 25.0 hrs
RAW264.7 [10] = assay: Cytotoxicity against mouse RAW264.7 cells assessed as reduction in cell viability at 5 uM incubated for 24 hrs by MTT assay; assay type: toxicity, cell-based; details: raw264.7, 24 h
Rattus norvegicus [11] = assay: Neuroprotective activity against middle cerebral artery occlusion induced ischemia stroke Sprague-Dawley rat model assessed as neurological severity score at 5 mg/kg, ip measured after 24 hrs by behavioral test (reference value: 10.50 +/- 2.72); assay type: functional
Rattus norvegicus [12] = assay: Neuroprotective activity against middle cerebral artery occlusion induced ischemia stroke Sprague-Dawley rat model assessed as reduction in serum MMP-9 level administered intraperitoneally and measured after 24 hrs by ELISA; assay type: functional, organism-based; details: dose 5-20 mg/kg, route ip
[13] = target: Kelch-like ECH-associated protein 1 (Homo sapiens, UniProt Q14145); assay: Binding affinity to CM5 chip immobilized KEAP1 Kelch domain (unknown origin) assessed as dissociation equilibrium constant by SPR analysis
Rattus norvegicus [14] = assay: Neuroprotective activity against middle cerebral artery occlusion induced ischemia stroke Sprague-Dawley rat model assessed as reduction in MDA level in serum at 20 mg/kg, ip measured after 24 hrs by ELISA; assay type: functional, organism-based
RAW264.7 [15] = assay: Anti-inflammatory activity in LPS-induced mouse RAW264.7 cells assessed as reduction in PGE2 level preincubated with compound for 1 hrs followed by LPS stimulation and measured after 24 hrs by ELISA; assay type: functional, cell-based; details: time 25.0 hrs
Rattus norvegicus [16] = assay: Neuroprotective activity against middle cerebral artery occlusion induced ischemia stroke Sprague-Dawley rat model assessed as increase in SOD level in serum at 20 mg/kg, ip measured after 24 hrs by ELISA; assay type: functional, organism-based
Rattus norvegicus [17] = assay: Neuroprotective activity against middle cerebral artery occlusion induced ischemia stroke Sprague-Dawley rat model assessed as neurological severity score at 10 mg/kg, ip measured after 24 hrs by behavioral test (reference value: 10.50 +/- 2.72); assay type: functional
Rattus norvegicus [18] = assay: Neuroprotective activity against middle cerebral artery occlusion induced ischemia stroke Sprague-Dawley rat model assessed as reduction in IL-1beta level in serum at 20 mg/kg, ip measured after 24 hrs by ELISA; assay type: functional, organism-based
[19] = Acute toxicity in mouse assessed as mortality at 1000 mg/kg, ip; assay type: organism-based; details: in vivo
PC-12 [20] = assay: Protection against SNP-induced cell damage in rat PC-12 cells assessed as reduction in apoptosis by measuring decrease in cell count at 10 uM preincubated with compound for 2 hrs followed by SNP addition and measured after 24 hrs by confocal laser microscopic analysis; assay type: functional, cell-based; details: time 26.0 hrs
PC-12 [21] = assay: Protection against SNP-induced cell damage in rat PC-12 cells assessed as reduction in apoptosis by measuring normal nuclear staining at 10 uM preincubated with compound for 2 hrs followed by SNP addition and measured after 24 hrs by confocal laser microscopic analysis; assay type: functional, cell-based; details: time 26.0 hrs
PC-12 [22] = assay: Protection against SNP-induced cell damage in rat PC-12 cells assessed as reduction in apoptosis by measuring decrease in bright-blue nuclei at 10 uM preincubated with compound for 2 hrs followed by SNP addition and measured after 24 hrs by confocal laser microscopic analysis; assay type: functional, cell-based; details: time 26.0 hrs
PC-12 [23] = assay: Neuroprotective activity against SNP-induced cell damage in rat PC-12 cells pretreated with compound for 2 hrs followed by SNP addition and measured after 24 hrs by MTT assay; assay type: functional, cell-based; details: dose 2.5-100 µM, time 26.0 hrs
RAW264.7 [24] = assay: Anti-inflammatory activity in mouse RAW264.7 cells assessed as inhibition of LPS-induced NO production preincubated with compound for 1 hrs followed by LPS stimulation and measured after 24 hrs; assay type: functional, cell-based; details: time 25.0 hrs
Rattus norvegicus [25] = assay: Neuroprotective activity against middle cerebral artery occlusion induced ischemia stroke Sprague-Dawley rat model assessed as reduction in glycocalyx degradation by measuring decrease in serum syndecan-1 level at 5 to 20 mg/kg, ip measured after 24 hrs by ELISA; assay type: functional, organism-based; details: dose 5-20 mg/kg
[26] = Acute toxicity in ip dosed mouse assessed as lethal dose; assay type: organism-based; details: in vivo
PC-12 [27] = assay: Protection against SNP-induced cell damage in rat PC-12 cells assessed as inhibition of ROS accumulation by measuring reduction in green fluorescence intensity at 10 uM preincubated with compound for 2 hrs followed by SNP addition and measured after 24 hrs by laser confocal microscopic analysis; assay type: functional, cell-based; details: time 26.0 hrs
RAW264.7 [28] = assay: Anti-inflammatory activity in LPS-induced mouse RAW264.7 cells assessed as decrease in COX-2 expression preincubated with compound for 1 hrs followed by LPS stimulation and measured after 24 hrs by Western blot analysis; assay type: functional, cell-based; details: dose 1.25-5 µM, time 25.0 hrs
Rattus norvegicus [29] = assay: Neuroprotective activity against middle cerebral artery occlusion induced ischemia stroke Sprague-Dawley rat model assessed as neurological severity score at 20 mg/kg, ip measured after 24 hrs by behavioral test (reference value: 10.50 +/- 2.72); assay type: functional
PC-12 [30] = assay: Protection against SNP-induced cell damage in rat PC-12 cells at 10 uM pretreated with compound for 2 hrs followed by SNP addition and measured after 24 hrs by MTT assay; assay type: functional, cell-based; details: time 26.0 hrs
Rattus norvegicus [31] = assay: Neuroprotective activity against middle cerebral artery occlusion induced ischemia stroke Sprague-Dawley rat model assessed as reduction in TNF-alpha level in serum at 20 mg/kg, ip measured after 24 hrs by ELISA; assay type: functional, organism-based
[32] = Acute toxicity in mouse assessed as effect on behavior at 1000 mg/kg, ip; assay type: organism-based; details: in vivo
PC-12 [33] = assay: Neuroprotective activity against SNP-induced cell damage in rat PC-12 cells at 2.5 to 100 uM pretreated with compound for 2 hrs followed by SNP addition and measured after 24 hrs by MTT assay; assay type: functional, cell-based; details: dose 2.5-100 µM, time 26.0 hrs

Sequence of Kelch-like ECH-associated protein 1 (Q14145 whole entry, the tested form may be a part): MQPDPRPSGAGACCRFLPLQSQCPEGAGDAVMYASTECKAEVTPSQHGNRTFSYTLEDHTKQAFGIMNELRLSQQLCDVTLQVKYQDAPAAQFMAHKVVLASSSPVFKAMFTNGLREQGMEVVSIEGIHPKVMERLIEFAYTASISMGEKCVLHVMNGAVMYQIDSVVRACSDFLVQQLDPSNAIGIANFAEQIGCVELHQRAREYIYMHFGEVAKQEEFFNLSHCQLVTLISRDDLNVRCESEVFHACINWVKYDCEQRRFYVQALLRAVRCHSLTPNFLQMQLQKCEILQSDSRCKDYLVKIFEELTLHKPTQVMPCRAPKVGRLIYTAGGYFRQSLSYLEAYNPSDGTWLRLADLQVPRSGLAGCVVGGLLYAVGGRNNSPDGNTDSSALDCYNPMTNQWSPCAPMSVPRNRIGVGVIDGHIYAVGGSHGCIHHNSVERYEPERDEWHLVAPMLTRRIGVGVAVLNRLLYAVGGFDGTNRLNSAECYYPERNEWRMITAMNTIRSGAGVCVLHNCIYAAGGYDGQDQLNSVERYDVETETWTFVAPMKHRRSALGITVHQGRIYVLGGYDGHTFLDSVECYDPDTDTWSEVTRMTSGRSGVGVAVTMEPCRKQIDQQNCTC
Sequence of Voltage-gated inwardly rectifying potassium channel KCNH2 (Q12809 whole entry): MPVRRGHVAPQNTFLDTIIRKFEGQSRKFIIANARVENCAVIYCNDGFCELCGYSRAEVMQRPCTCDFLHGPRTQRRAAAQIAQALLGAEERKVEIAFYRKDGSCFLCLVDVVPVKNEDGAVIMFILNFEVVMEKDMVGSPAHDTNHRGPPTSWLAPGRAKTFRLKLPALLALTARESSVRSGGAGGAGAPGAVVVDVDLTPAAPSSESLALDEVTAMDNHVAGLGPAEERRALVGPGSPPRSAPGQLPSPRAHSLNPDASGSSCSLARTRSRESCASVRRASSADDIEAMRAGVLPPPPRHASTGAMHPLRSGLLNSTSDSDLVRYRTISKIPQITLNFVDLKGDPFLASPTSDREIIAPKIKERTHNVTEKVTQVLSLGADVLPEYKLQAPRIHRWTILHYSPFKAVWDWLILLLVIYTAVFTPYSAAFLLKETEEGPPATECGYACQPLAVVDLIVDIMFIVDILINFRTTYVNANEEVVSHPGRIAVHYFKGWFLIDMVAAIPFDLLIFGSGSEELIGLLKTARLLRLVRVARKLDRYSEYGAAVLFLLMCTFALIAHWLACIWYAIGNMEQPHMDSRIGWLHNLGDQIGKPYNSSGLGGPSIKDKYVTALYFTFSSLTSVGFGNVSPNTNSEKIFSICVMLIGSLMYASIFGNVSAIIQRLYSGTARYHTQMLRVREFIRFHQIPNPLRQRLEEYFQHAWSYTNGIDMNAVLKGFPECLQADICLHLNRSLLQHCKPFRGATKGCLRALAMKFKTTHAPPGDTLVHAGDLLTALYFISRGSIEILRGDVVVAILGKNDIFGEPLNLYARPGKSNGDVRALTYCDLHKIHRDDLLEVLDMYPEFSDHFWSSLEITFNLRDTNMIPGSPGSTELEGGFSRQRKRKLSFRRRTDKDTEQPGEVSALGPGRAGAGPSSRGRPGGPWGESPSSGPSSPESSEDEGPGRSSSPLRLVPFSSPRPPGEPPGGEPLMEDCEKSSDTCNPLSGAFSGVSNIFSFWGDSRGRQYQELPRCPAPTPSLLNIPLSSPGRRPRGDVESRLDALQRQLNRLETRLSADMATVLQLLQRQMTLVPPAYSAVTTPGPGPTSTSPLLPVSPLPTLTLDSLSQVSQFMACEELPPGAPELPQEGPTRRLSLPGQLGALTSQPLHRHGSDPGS

With `CC1=NN(c2ccccc2)C(=O)C1` [EDARAVONE] as the molecule, how does the Activity (Rattus norvegicus [1]) read?
The Activity was “Active”.

What about the Activity (Rattus norvegicus [2]) of the same molecule?
The Activity was 15.41.

For `NS(=O)(=O)c1ccc(-n2nc(-c3ccc(C(F)(F)F)cc3O)nc2-c2ccccc2O)cc1`, which Activity (Rattus norvegicus [3]) is on record?
The Activity was “Dose-Dependent Effect”.

What about the Activity (Rattus norvegicus [4]) of the same molecule?
The Activity was 15.61.

What about the Activity (Rattus norvegicus [5]) of the same molecule?
The Activity was “Active”.

And the Activity (Rattus norvegicus [6])?
The Activity was 18.52.

And the IC50 [7]?
Its IC50 is greater than 30 µM.

What about the IC50 [8] of the same molecule?
Its IC50 is 86.5 µM.

And the Activity (RAW264.7 [9])?
The Activity was “Dose-Dependent Effect”.

And the Activity (RAW264.7 [10])?
The Activity was “Non-Toxic”.

What about the Activity (Rattus norvegicus [11]) of the same molecule?
Its Activity is 9.2.

And the Activity (Rattus norvegicus [12])?
The Activity was “Dose-Dependent Effect”.

And the Kd [13]?
Its Kd is 16.5 µM.

And the Activity (Rattus norvegicus [14])?
The Activity was “Active”.

What about the Activity (RAW264.7 [15]) of the same molecule?
Its Activity is “Active”.

What about the Activity (Rattus norvegicus [16]) of the same molecule?
The Activity was “Active”.

And the Activity (Rattus norvegicus [17])?
Its Activity is 9.25.

What about the Activity (Rattus norvegicus [18]) of the same molecule?
The Activity was “Active”.

What about the Activity (Rattus norvegicus [2]) of the same molecule?
The Activity was 17.43.

What about the Activity [19] of the same molecule?
The Activity was “Non-Toxic”.

What about the Activity (PC-12 [20]) of the same molecule?
The Activity was “Active”.

And the Activity (PC-12 [21])?
The Activity was “Active”.

And the Activity (PC-12 [22])?
Its Activity is “Active”.

What about the Activity (PC-12 [23]) of the same molecule?
Its Activity is “Dose-Dependent Effect”.

What about the Activity (RAW264.7 [24]) of the same molecule?
The Activity was “Active”.

And the Activity (Rattus norvegicus [25])?
Its Activity is “Active”.

And the LD50 [26]?
Its LD50 is greater than 1000 mg/kg.

What about the Activity (PC-12 [27]) of the same molecule?
Its Activity is “Active”.

What about the Activity (RAW264.7 [28]) of the same molecule?
Its Activity is “Dose-Dependent Effect”.

What about the Activity (Rattus norvegicus [29]) of the same molecule?
The Activity was 7.4.

What about the Activity (PC-12 [30]) of the same molecule?
Its Activity is “Active”.

What about the Activity (Rattus norvegicus [31]) of the same molecule?
Its Activity is “Active”.

And the Activity [32]?
Its Activity is “Non-Toxic”.

With `NS(=O)(=O)c1ccc(-n2nc(-c3ccc(F)cc3O)nc2-c2ccc(F)cc2O)cc1` as the molecule, how does the IC50 [8] read?
Its IC50 is 26.3 µM.

What about the Activity (RAW264.7 [10]) of the same molecule?
Its Activity is “Non-Toxic”.

And the Activity (RAW264.7 [15])?
The Activity was “Active”.

And the Activity (PC-12 [23])?
Its Activity is “Dose-Dependent Effect”.

And the Activity (RAW264.7 [24])?
The Activity was “Active”.

What about the Activity (PC-12 [30]) of the same molecule?
Its Activity is “Active”.

With `Cc1ccc(-c2cc(C(F)(F)F)nn2-c2ccc(S(N)(=O)=O)cc2)cc1` [CELECOXIB] as the molecule, how does the Activity (RAW264.7 [10]) read?
The Activity was “Non-Toxic”.

And the Activity (RAW264.7 [15])?
Its Activity is “Active”.

What about the Activity (PC-12 [33]) of the same molecule?
The Activity was “inactive”.

What about the Activity (RAW264.7 [24]) of the same molecule?
The Activity was “Active”.
